# Test results reported in the supplement of paper PMC10307832.
# Columns and labels:
# Experiment in all cases: relative viability (nuclei count vs DMSO), 5 days (fraction); higher = more cells survive
# 201T = system: 201T
# How it was run: (§1)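 After 5 days of treatment, lung cancer cells in 1536-well plates were fixed and stained in a single step (final 0.05% Triton X-100, 1% formaldehyde, 1 ug/ml Hoechst) and their nuclei counted on 4× images. Treatment had been applied by pin tool the day after seeding as one drug alone or as a fixed anchor-drug dose with five library-drug doses (not always all listed) in √10 steps. Relative viability is the nuclei count of treated wells divided by that of vehicle wells, and values are medians of duplicate plates.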
# ABC-1 = system: ABC-1
# How it was run: as §1
# COR-L 105 = system: COR-L 105
# How it was run: as §1
# COR-L23 = system: COR-L23
# How it was run: as §1
# EKVX = system: EKVX
# How it was run: as §1
# EPLC-272H = system: EPLC-272H
# How it was run: as §1
# H3255 = system: H3255
# How it was run: as §1
# HCC-15 = system: HCC-15
# How it was run: as §1
# HCC-44 = system: HCC-44
# How it was run: as §1
# HCC-827 = system: HCC-827
# How it was run: as §1
# LCLC-103H = system: LCLC-103H
# How it was run: as §1
# NCI-H1437 = system: NCI-H1437
# How it was run: as §1
# NCI-H1650 = system: NCI-H1650
# How it was run: as §1
# NCI-H1651 = system: NCI-H1651
# How it was run: as §1
# NCI-H1792 = system: NCI-H1792
# How it was run: as §1
# NCI-H1975 = system: NCI-H1975
# How it was run: as §1
# NCI-H2087 = system: NCI-H2087
# How it was run: as §1
# NCI-H520 = system: NCI-H520
# How it was run: as §1
# NCI-H647 = system: NCI-H647
# How it was run: as §1
# NCI-H661 = system: NCI-H661
# How it was run: as §1
# NCI-H727 = system: NCI-H727
# How it was run: as §1
# UMC-11 = system: UMC-11
# How it was run: as §1
smiles,measurement,setting,value
O=C(O)CCCCC(CCSCc1ccccc1)SCc1ccccc1 (stereo not given) [CPI-613] + CC(C)C[C@H](NC(=O)[C@H](Cc1ccccc1)NC(=O)c1cnccn1)B(O)O [Bortezomib] (partner 0.002 µM),relative viability,201T; first compound 5 µM,1.08
same,relative viability,201T; first compound 15.81 µM,1.03
same,relative viability,201T; first compound 50 µM,1.09
same,relative viability,201T; first compound 158.11 µM,0.995
same,relative viability,201T; first compound 500 µM,0.949
same,relative viability,ABC-1; first compound 5 µM,0.305
same,relative viability,ABC-1; first compound 15.81 µM,0.298
same,relative viability,ABC-1; first compound 50 µM,0.302
same,relative viability,ABC-1; first compound 158.11 µM,0.232
same,relative viability,ABC-1; first compound 500 µM,0.242
same,relative viability,COR-L 105; first compound 5 µM,0.652
same,relative viability,COR-L 105; first compound 15.81 µM,0.859
same,relative viability,COR-L 105; first compound 50 µM,0.542
same,relative viability,COR-L 105; first compound 158.11 µM,0.287
same,relative viability,COR-L 105; first compound 500 µM,0.195
same,relative viability,COR-L23; first compound 5 µM,0.938
same,relative viability,COR-L23; first compound 15.81 µM,0.941
same,relative viability,COR-L23; first compound 50 µM,1
same,relative viability,COR-L23; first compound 158.11 µM,0.408
same,relative viability,COR-L23; first compound 500 µM,0.0074
same,relative viability,EKVX; first compound 5 µM,0.864
same,relative viability,EKVX; first compound 15.81 µM,0.957
same,relative viability,EKVX; first compound 50 µM,1.05
same,relative viability,EKVX; first compound 158.11 µM,0.548
same,relative viability,EKVX; first compound 500 µM,1.04
same,relative viability,EPLC-272H; first compound 5 µM,0.937
same,relative viability,EPLC-272H; first compound 15.81 µM,0.859
same,relative viability,EPLC-272H; first compound 50 µM,1.1
same,relative viability,EPLC-272H; first compound 158.11 µM,0.778
same,relative viability,EPLC-272H; first compound 500 µM,0.93
same,relative viability,H3255; first compound 5 µM,0.815
same,relative viability,H3255; first compound 15.81 µM,0.719
same,relative viability,H3255; first compound 50 µM,0.781
same,relative viability,H3255; first compound 158.11 µM,0.734
same,relative viability,H3255; first compound 500 µM,0.736
same,relative viability,HCC-15; first compound 5 µM,0.938
same,relative viability,HCC-15; first compound 15.81 µM,0.932
same,relative viability,HCC-15; first compound 50 µM,0.905
same,relative viability,HCC-15; first compound 158.11 µM,0.757
same,relative viability,HCC-15; first compound 500 µM,0.394
same,relative viability,HCC-44; first compound 5 µM,0.878
same,relative viability,HCC-44; first compound 15.81 µM,0.832
same,relative viability,HCC-44; first compound 50 µM,0.913
same,relative viability,HCC-44; first compound 158.11 µM,0.596
same,relative viability,HCC-44; first compound 500 µM,0.0155
same,relative viability,HCC-827; first compound 5 µM,0.923
same,relative viability,HCC-827; first compound 15.81 µM,1.02
same,relative viability,HCC-827; first compound 50 µM,0.926
same,relative viability,HCC-827; first compound 158.11 µM,0.916
same,relative viability,HCC-827; first compound 500 µM,0.786
same,relative viability,LCLC-103H; first compound 5 µM,1.08
same,relative viability,LCLC-103H; first compound 15.81 µM,0.94
same,relative viability,LCLC-103H; first compound 50 µM,0.966
same,relative viability,LCLC-103H; first compound 158.11 µM,0.985
same,relative viability,LCLC-103H; first compound 500 µM,1.06
same,relative viability,NCI-H1437; first compound 5 µM,0.479
same,relative viability,NCI-H1437; first compound 15.81 µM,0.397
same,relative viability,NCI-H1437; first compound 50 µM,0.493
same,relative viability,NCI-H1437; first compound 158.11 µM,0.115
same,relative viability,NCI-H1437; first compound 500 µM,0.0227
same,relative viability,NCI-H1650; first compound 5 µM,0.196
same,relative viability,NCI-H1650; first compound 15.81 µM,0.204
same,relative viability,NCI-H1650; first compound 50 µM,0.187
same,relative viability,NCI-H1650; first compound 158.11 µM,0.0869
same,relative viability,NCI-H1650; first compound 500 µM,0.0195
same,relative viability,NCI-H1651; first compound 5 µM,0.91
same,relative viability,NCI-H1651; first compound 15.81 µM,0.9
same,relative viability,NCI-H1651; first compound 50 µM,0.866
same,relative viability,NCI-H1651; first compound 158.11 µM,0.914
same,relative viability,NCI-H1651; first compound 500 µM,1
same,relative viability,NCI-H1792; first compound 5 µM,0.889
same,relative viability,NCI-H1792; first compound 15.81 µM,0.886
same,relative viability,NCI-H1792; first compound 50 µM,0.996
same,relative viability,NCI-H1792; first compound 158.11 µM,0.836
same,relative viability,NCI-H1792; first compound 500 µM,0.893
same,relative viability,NCI-H1975; first compound 5 µM,0.445
same,relative viability,NCI-H1975; first compound 15.81 µM,0.448
same,relative viability,NCI-H1975; first compound 50 µM,0.394
same,relative viability,NCI-H1975; first compound 158.11 µM,0.174
same,relative viability,NCI-H1975; first compound 500 µM,0.0487
same,relative viability,NCI-H2087; first compound 5 µM,0.838
same,relative viability,NCI-H2087; first compound 15.81 µM,0.725
same,relative viability,NCI-H2087; first compound 50 µM,0.827
same,relative viability,NCI-H2087; first compound 158.11 µM,0.33
same,relative viability,NCI-H2087; first compound 500 µM,0.016
same,relative viability,NCI-H520; first compound 5 µM,0.756
same,relative viability,NCI-H520; first compound 15.81 µM,0.421
same,relative viability,NCI-H520; first compound 50 µM,0.858
same,relative viability,NCI-H520; first compound 158.11 µM,0.169
same,relative viability,NCI-H520; first compound 500 µM,0.0871
same,relative viability,NCI-H647; first compound 5 µM,0.861
same,relative viability,NCI-H647; first compound 15.81 µM,0.8
same,relative viability,NCI-H647; first compound 50 µM,0.962
same,relative viability,NCI-H647; first compound 158.11 µM,0.0678
same,relative viability,NCI-H647; first compound 500 µM,0.0092
same,relative viability,NCI-H661; first compound 5 µM,0.749
same,relative viability,NCI-H661; first compound 15.81 µM,0.66
same,relative viability,NCI-H661; first compound 50 µM,0.85
same,relative viability,NCI-H661; first compound 158.11 µM,0.709
same,relative viability,NCI-H661; first compound 500 µM,0.709
same,relative viability,NCI-H727; first compound 5 µM,0.806
same,relative viability,NCI-H727; first compound 15.81 µM,0.782
same,relative viability,NCI-H727; first compound 50 µM,0.792
same,relative viability,NCI-H727; first compound 158.11 µM,0.665
same,relative viability,NCI-H727; first compound 500 µM,0.0714
same,relative viability,UMC-11; first compound 5 µM,0.703
same,relative viability,UMC-11; first compound 15.81 µM,0.496
same,relative viability,UMC-11; first compound 50 µM,0.692
same,relative viability,UMC-11; first compound 158.11 µM,0.641
same,relative viability,UMC-11; first compound 500 µM,0.0673
